Measured values: patent publication US10196363B2, “Dihydropyrimidin-2-one compounds and medical use thereof” (JAPAN TOBACCO INC., priority 2014, dated 2019)
Like-named read-outs stand apart in the source and are kept apart here.

Columns and labels:
[1] = target: T1, mouse RORγ (Mus musculus, UniProt P51450); assay: In vitro assay of inhibitory effect against RORγ transcriptional activity (GAL4-mRORγ LBD luciferase reporter gene assay in CHO cells); type: cell-based; conditions: for mRORγ luciferase activity, %-of-control: vehicle-control 0.2% DMSO alone = 100%
T1 construct: mouse RORγ, from Ile251 to Lys516; expressed in transfected cells; host or cells: CHO cells (Chinese hamster ovary), transient co-transfection with pG5-Luc
T1 sequence (P51450 251-516): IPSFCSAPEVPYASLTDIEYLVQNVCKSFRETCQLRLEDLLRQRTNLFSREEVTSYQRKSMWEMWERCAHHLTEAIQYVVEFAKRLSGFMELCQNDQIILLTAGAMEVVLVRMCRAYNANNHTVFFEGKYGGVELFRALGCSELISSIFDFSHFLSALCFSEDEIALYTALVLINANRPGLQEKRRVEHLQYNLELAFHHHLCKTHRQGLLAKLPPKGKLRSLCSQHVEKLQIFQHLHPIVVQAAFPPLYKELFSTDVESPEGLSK
Method: (§1) In Vitro Assay of Inhibitory Effect Against RORγ Transcriptional Activity
(§2) Inhibitory effect of a test article on transcriptional activity of RORγ was measured by means of the following reporter gene assay.
(§3) cDNA encoding human and mouse RORγ ligand binding domain (LBD) were obtained based on the sequences of human RORγ (Genebank registered number NM_005060.3) and mouse RORγ (Genebank registered number NM_011281.2) (LBD sequence: human RORγ, from Ser253 to Lys518; mouse RORγ, from Ile251 to Lys516).
(§4) The LBD cDNA of human or mouse RORγ was inserted into pFA-CMV vector (Strategene), which expresses GAL4-DNA binding domain fusion protein. The resulting plasmids are hereinafter referred to as GAL4-hRORγ plasmid and GAL4-mRORγ plasmid, respectively.
(§5) GAL4-hRORγ plasmid or GAL4-mRORγ plasmid was transiently co-transfected into Chinese hamster ovary cells (CHO cells) with pG5-Luc (Promega), a reporter plasmid expressing firefly luciferase depending on GAL4.
(§6) TransIT (Registered trademark) CHO transfection reagent (Mirus) was used to co-transfect GAL4-hRORγ plasmid or GAL4-mRORγ plasmid into CHO cells with pG5-Luc plasmid. One day before the assay, CHO cells were suspended in HAM F-12 Nutrient medium containing 10 v/v % fetal bovine serum and seeded at 6×10^6 cells per 175 cm^2 cell culture flask. Fifty four micro litters of TransIT (Registered trademark) CHO reagent was added into a 15 ml tube containing 1.16 mL of HAM F-12 Nutrient medium without fetal bovine serum, and mixed and incubated at room temperature for 10 min. Thirty six micro litters of plasmid solution containing the GAL4-hRORγ plasmid (400 ng), pG5-Luc plasmid (9000 ng) and pcDNA3 plasmid (8600 ng) were added into the tube and mixed gently. In case of mouse assay, a plasmid solution containing the GAL4-mRORγ plasmid (250 ng), pG5-Luc plasmid (9000 ng) and pcDNA3 plasmid (8750 ng) was added, instead. The mixture was incubated at room temperature for 10 min. Nine micro litters of CHO Mojo Reagent were then added into each tube and mixed gently. The mixture was incubated at room temperature for 10 min. The resultant transfection reagent was applied to the cell culture. After incubation at 37° C., 5% CO2 for 4 hours, the plasmid-transfected CHO cells were harvested with a trypsin treatment. The collected cells were resuspended in HAM F-12 Nutrient medium supplemented with 10 v/v % fetal bovine serum and plated into a 384-well-white plate at 8,000 cells/50 μL/well. The plate was incubated at room temperature for 1 hour and then further incubated at 37° C., 5% CO2 for 3 hours. The test articles were dissolved in dimethylsulfoxide (DMSO) to obtain a concentration of 10 mM. The resulting solution was diluted with a medium just before use and added to the cells in the plate to prepare 8 different concentrations of the test article. The final concentration of DMSO was 0.2 v/v %. After the addition of the test articles, the cells were incubated at 37° C., 5% CO2 for 2 days.
(§7) RORγ transcriptional activity was detected as the intracellular luciferase activity using SteadyLite HTS Reporter Gene Assay System (Perkin Elmer). StedyLite Reagent was diluted five-fold into a solution containing Extension reagent (10 mM Tricine, 0.2% w/v BSA, 0.02% v/v Tween-20) to obtain the luciferase substrate solution. After the measurement of the cell viability using Resazurin, the culture media in the plate were removed, and then the luciferase substrate solution was added into each well. After the incubation at room temperature for 10 minutes, luminescence of each well was measured by a microplate reader. The luciferase activity derived from the luminescence count in the vehicle-control well treated with 0.2% DMSO alone was defined as 100%, and the luciferase activity in the test article was calculated as a percentage (%-of-control) based on the value of the vehicle-control. EC50 value of test article was calculated by curve fitting with GraphPad Prism. […]

[2] = target: T2, human RORγ (Homo sapiens, UniProt P51449); assay: In vitro assay of inhibitory effect against RORγ transcriptional activity (GAL4-hRORγ LBD luciferase reporter gene assay in CHO cells); type: cell-based; conditions: for hRORγ luciferase activity, %-of-control: vehicle-control 0.2% DMSO alone = 100%
T2 construct: human RORγ, from Ser253 to Lys518; expressed in transfected cells; host or cells: CHO cells (Chinese hamster ovary), transient co-transfection with pG5-Luc
T2 sequence (P51449 253-518): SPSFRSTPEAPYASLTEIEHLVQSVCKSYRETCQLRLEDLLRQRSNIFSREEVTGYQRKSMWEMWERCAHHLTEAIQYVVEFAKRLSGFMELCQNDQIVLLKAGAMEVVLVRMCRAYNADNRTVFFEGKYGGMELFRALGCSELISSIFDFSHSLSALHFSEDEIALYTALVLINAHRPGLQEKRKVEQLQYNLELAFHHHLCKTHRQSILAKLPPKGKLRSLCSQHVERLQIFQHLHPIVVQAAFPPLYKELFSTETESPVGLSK
Method: as §1, §2, §3, §4, §5, §6, §7

[3] = GAL4-mRORγ LBD luciferase reporter, CHO cells, read-out: LUC EC50 mRORγ
[4] = value in parentheses beside the EC50 bound
[5] = GAL4-hRORγ LBD luciferase reporter, CHO cells, read-out: LUC EC50 hRORγ
[6] = GAL4-mRORγ LBD / pG5-Luc in CHO cells, 2 days incubation
[7] = value in parentheses beside the > EC50 bound
[8] = GAL4-hRORγ LBD / pG5-Luc in CHO cells, 2 days incubation

Row | SMILES | EC50 [1, 3] [nM] | EC50 [2, 5] [nM] | EC50 [1, 6] [nM] | EC50 [2, 8] [nM] | other results
1 | COC(=O)[C@H]1C[C@H](N2C=C(C(C)(C)CCCO)[C@@](C)(c3ccc(CCC(C)(C)C)c(Cl)c3)NC2=O)C1 (single isomer, unassigned) [Example 190] | > 8000 | > 8000 |  |  | mRORγ luciferase activity, %-of-control [1, 4]: (66%); hRORγ luciferase activity, %-of-control [2, 4]: (74%)
2 | CC(C)C1=CN(CCC(=O)O)C(=O)N[C@]1(C)c1ccc(CCC2CCCCC2)c(Cl)c1 [Example 138] |  |  | > 8000 | > 8000 | mRORγ luciferase activity, %-of-control [1, 7]: (96%); hRORγ luciferase activity, %-of-control [2, 7]: (85%)
3 | CC(C)C1=CN(CCC(=O)O)C(=O)N[C@@]1(C)c1ccc(OCCC(C)(C)C)c(Cl)c1 [Example 125] |  |  | < 32 | < 32 | 
4 | CC(C)(C)CCc1ccc([C@]2(C)NC(=O)N(C3CC(F)(F)C3)C=C2[C@H]2C[C@@H](C(=O)O)C2)cc1Cl [Example 229] | 18 | 9 |  |  | 
5 | CCCCc1ccc(C2(C)NC(=O)N(CCCC(=O)O)C=C2C(C)C)cc1Cl (racemic) [Example 28] |  |  | 82 | 187 | 
6 | COc1cc([C@@]2(C)NC(=O)N(CCC(=O)O)C=C2C(C)C)ccc1CCC(C)(C)C [Example 212] | > 8000 | > 8000 |  |  | mRORγ luciferase activity, %-of-control [1, 4]: (81%); hRORγ luciferase activity, %-of-control [2, 4]: (68%)
7 | CC(C)C1=CN(C2CCCC(C(=O)O)C2)C(=O)N[C@@]1(C)c1ccc(CCC(C)(C)C)c(Cl)c1 (single isomer, unassigned) [Example 256] | 26 | 22 |  |  | 
8 | COCCC1=CN(c2ccc(C(=O)O)cc2)C(=O)N[C@@]1(C)c1ccc([C@H]2C[C@@H](C(C)(C)C)C2)c(Cl)c1 [Example 315] | 19 | 13 |  |  | 
9 | CC(C)C1=CN(CCC(=O)O)C(=O)N[C@@]1(C)c1ccc(C2CC3(CCC3)C2)c(Cl)c1 [Example 173] |  |  | 11 | 22 | 
10 | CC(C)C1=CN(CCC(=O)O)C(=O)N[C@@]1(C)c1ccc(OCCC(F)(F)F)c(Cl)c1 [Example 140] |  |  | 139 | 209 | 
11 | CC(C)CC1=CN(CCC(=O)O)C(=O)N[C@@]1(C)c1ccc(CCC(C)(C)C)c(Cl)c1 [Example 137] |  |  | 11 | 15 | 
12 | CC(C)C1=CN(CCC(=O)O)C(=O)N[C@@]1(C)c1ccc(CCC(C)(C)C)c(Cl)c1 [Example 87, 3-{(S)-4-[3-Chloro-4-(3,3-dimethyl-butyl)-phenyl]-5-isopropyl-4-methyl-2-oxo-3,4-dihydro-2H-pyrimidin-1-yl}-propionic Acid] |  |  | 15 | 11 | 
13 | CC(C)(C)CCc1ccc(C2NC(=O)N(CCCC(=O)O)C=C2C(C)(C)C)cc1Cl (single isomer, unassigned) [Example 10] |  |  | 17 | 9 | 
14 | CC(C)C1=CN(c2ccc(C(=O)O)cc2)C(=O)N[C@@]1(C)c1ccc(COC(C)(C)C)c(Cl)c1 [Example 203] | 21 | 30 |  |  | 
15 | CC(C)(C)CCc1ccc([C@]2(C)NC(=O)N(C3CCC(F)(F)CC3)C=C2[C@H]2C[C@@H](C(=O)O)C2)cc1Cl [Example 246] | 22 | 10 |  |  | 
16 | CC1=CN(CCCC(=O)O)C(=O)N[C@]1(C)c1ccc(CCC(C)(C)C)c(Cl)c1 [Example 60] |  |  | 12400 | 15300 | 

Row | SMILES | EC50 [1, 3] [nM] | EC50 [2, 5] [nM] | EC50 [1, 6] [nM] | EC50 [2, 8] [nM] | other results
17 | CC(C)C1=CN(C2CN(S(C)(=O)=O)CC2C(=O)O)C(=O)N[C@@]1(C)c1ccc(CCC(C)(C)C)c(Cl)c1 (single isomer, unassigned) [Example 240] | 147 | 108 |  |  | 
18 | CC(C)C1=CN(c2ccc(C(=O)O)cc2)C(=O)N[C@@]1(C)c1ccc(CCC(C)(C)C(F)(F)F)c(Cl)c1 [Example 196] | 17 | 9 |  |  | 
19 | CC(C)C1=CN(CCC(C)C(=O)O)C(=O)NC1(C)c1ccc(OCC(C)(C)C)c(Cl)c1 (single isomer, unassigned) [Example 19] |  |  | 1210 | 2290 | 
20 | CC(C)C1=CN(CCOCC(=O)O)C(=O)NC1(C)c1ccc(CCC(C)(C)C)c(Cl)c1 (single isomer, unassigned) [Example 39] |  |  | 26 | 20 | 
21 | CC(C)C1=CN(CCC(C)C(=O)O)C(=O)NC1(C)c1ccc(CCC(C)(C)C)c(Cl)c1 (single isomer, unassigned) [Example 25] |  |  | < 32 | < 32 | 
22 | CC(C)(C)CCc1ccc([C@]2(C)NC(=O)N(c3ccc(C(=O)O)cc3)C=C2C2CC(F)(F)C2)cc1Cl [Example 252] | 28 | 20 |  |  | 
23 | CC(C)C1=CN(CCC(=O)O)C(=O)N[C@@]1(C)c1ccc(CC2CCC(C)(C)CC2)c(Cl)c1 [Example 286] | 38 | 270 |  |  | 
24 | CC(C)(C)CCc1ccc(C2(C)NC(=O)N(CCC(=O)O)C=C2C2(C)CC2)cc1Cl (single isomer, unassigned) [Example 171] |  |  | 14 | 12 | 
25 | CC(C)C1=CN(C23CC(C(=O)O)(C2)C3)C(=O)N[C@@]1(C)c1ccc(CCC(C)(C)C)c(Cl)c1 [Example 77] |  |  | 24 | 15 | 
26 | CC(C)(C)CCc1ccc([C@@]2(C)NC(=O)N(CCCC(=O)O)C=C2C2(C)CC2)cc1Cl [Example 51] |  |  | 1080 | 1180 | 
27 | CC(C)C1=CN(CCC(=O)O)C(=O)N[C@@]1(C)c1ccc(OCC(C)(C)C)c(Cl)c1 [Example 126] |  |  | 27 | 37 | 
28 | CC(C)C1=CN(CCC(=O)O)C(=O)N[C@@]1(C)c1ccc(CCC(C)(C)C)cc1 [Example 253] | 34 | 75 |  |  | 
29 | CC(C)C1=CN(CCC(=O)O)C(=O)N[C@]1(C)c1ccc(C2=CCCC2)c(Cl)c1 [Example 148] |  |  | > 8000 | > 8000 | mRORγ luciferase activity, %-of-control [1, 7]: (69%); hRORγ luciferase activity, %-of-control [2, 7]: (57%)
30 | CC(C)C1=CN(C23CC(C(=O)O)(C2)C3)C(=O)N[C@@]1(C)c1ccc(CCC(C)(C)C)c(C(F)(F)F)c1 [Example 322] | 19 | 21 |  |  | 
31 | CC(C)C1=CN(Cc2ccc(C(=O)O)cc2)C(=O)N[C@@]1(C)c1ccc(CCC(C)(C)C)c(Cl)c1 [Example 204] | 17 | 14 |  |  | 
